In patent US7608717B2, “Sulfonyldihydroimidazopyridinone compounds as 5-hydroxytryptamine-6 ligands” (Wyeth, priority 2003, dated 2009):

Each compound was assayed against T1, human cloned 5-HT6 receptors (Homo sapiens, UniProt P50406) (assay: 5-HT6 binding affinity ([3H]-LSD displacement, membranes of Hela cells expressing human cloned 5-HT6 receptors)). Settings: [3H]-LSD 3.0 nM, Hela cell membranes, 120 min at room temperature.
T1 construct: expressed in transfected cells; host or cells: HeLa cells
T1 sequence (P50406 whole entry): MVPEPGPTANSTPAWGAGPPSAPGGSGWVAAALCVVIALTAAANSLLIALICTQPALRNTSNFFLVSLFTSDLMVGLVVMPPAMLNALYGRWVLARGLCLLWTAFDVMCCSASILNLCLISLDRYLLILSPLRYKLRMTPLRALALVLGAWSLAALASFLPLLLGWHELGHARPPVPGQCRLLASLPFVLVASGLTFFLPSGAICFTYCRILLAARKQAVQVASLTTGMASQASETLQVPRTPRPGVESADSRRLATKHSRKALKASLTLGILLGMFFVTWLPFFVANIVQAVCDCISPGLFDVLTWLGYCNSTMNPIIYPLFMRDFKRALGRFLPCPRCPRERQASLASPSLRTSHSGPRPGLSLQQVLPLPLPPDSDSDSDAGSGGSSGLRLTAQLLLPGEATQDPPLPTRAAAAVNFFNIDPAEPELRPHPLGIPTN
Method: The affinity of test compounds for the serotonin 5-HT6 receptor is evaluated in the following manner. Cultured Hela cells expressing human cloned 5-HT6 receptors are harvested and centrifuged at low speed (1,000×g) for 10.0 min to remove the culture media. The harvested cells are suspended in half volume of fresh physiological phosphate buffered saline solution and recentrifuged at the same speed. This operation is repeated. The collected cells are then homogenized in ten volumes of 50 mM Tris.HCl (pH 7.4) and 0.5 mM EDTA. The homogenate is centrifuged at 40,000×g for 30.0 min and the precipitate is collected. The obtained pellet is resuspended in 10 volumes of Tris.HCl buffer and recentrifuged at the same speed. The final pellet is suspended in a small volume of Tris.HCl buffer and the tissue protein content is determined in aliquots of 10-25 μl volumes. Bovine Serum Albumin is used as the standard in the protein determination according to the method described in Lowry et al., J. Biol. Chem., 193:265 (1951). The volume of the suspended cell membranes is adjusted to give a tissue protein concentration of 1.0 mg/ml of suspension. The prepared membrane suspension (10 times concentrated) is aliquoted in 1.0 ml volumes and stored at −70° C. until used in subsequent binding experiments.
Binding experiments are performed in a 96 well microtiter plate format, in a total volume of 200 μl. […] The test compounds are added in 20.0 μl volume.
The reaction is allowed to proceed in the dark for 120 min at room temperature, at which time, the bound ligand-receptor complex is filtered off on a 96 well unifilter with a Packard Filtermate® 196 Harvester. The bound complex caught on the filter disk is allowed to air dry and the radioactivity is measured in a Packard TopCount® equipped with six photomultiplier detectors, after the addition of 40.0 μl Microscint®-20 scintillant to each shallow well. The unifilter plate is heat-sealed and counted in a PackardTopCount® with a tritium efficiency of 31.0%.
Binding in the presence of varying concentrations of test compound is expressed as a percentage of specific binding in the absence of test compound. The results are plotted as log % bound versus log concentration of test compound. […] A linear regression line of data points is plotted, from which the IC50 value is determined and the Ki value is determined based upon the following equation: Ki=IC50/(1+L/KD) where L is the concentration of the radioactive ligand used and KD is the dissociation constant of the ligand for the receptor, both expressed in nM.

SMILES | Ki
CN(C)CCn1c(=O)n(S(=O)(=O)c2cccc(Br)c2)c2cccnc21 [Example 7, 1-[(3-bromophenyl)sulfonyl]-3-[2-(dimethylamino)ethyl]-1,3-dihydro-2H-imidazo[4,5-b]pyridin-2-one] | 23 nM
NCCn1c(=O)n(S(=O)(=O)c2cccc(Cl)c2)c2cccnc21 [Example 16, 3-(2-aminoethyl)-1-[(3-chlorophenyl)sulfonyl]-1,3-dihydro-2H-imidazo[4,5-b]pyridin-2-one] | 16 nM
NCCn1c(=O)n(S(=O)(=O)c2ccc(Br)s2)c2cccnc21 [Example 26, 3-(2-aminoethyl)-1-[(5-bromothien-2-yl)sulfonyl]-1,3-dihydro-2H-imidazo[4,5-b]pyridin-2-one] | 9 nM
NCCn1c(=O)n(S(=O)(=O)c2ccccc2Cl)c2cccnc21 [Example 22, 3-(2-aminoethyl)-1-[(2-chlorophenyl)sulfonyl]-1,3-dihydro-2H-imidazo[4,5-b]pyridin-2-one] | 55 nM
NCCn1c(=O)n(S(=O)(=O)c2cccc(Br)c2)c2cccnc21 [Example 25, 3-(2-aminoethyl)-1-[(3-bromophenyl)sulfonyl]-1,3-dihydro-2H-imidazo[4,5-b]pyridin-2-one] | 12 nM
NCCn1c(=O)n(S(=O)(=O)c2ccc(Cl)s2)c2cccnc21 [Example 14, 3-(2-Aminoethyl)-1-[(5-chlorothien-2-yl)sulfonyl]-1,3-dihydro-2H-imidazo[4,5-b]pyridin-2-one] | 18 nM
NCCn1c(=O)n(S(=O)(=O)c2ccccc2)c2cccnc21 [Example 15, 3-(2-aminoethyl)-1-(phenylsulfonyl)-1,3-dihydro-2H-imidazo[4,5-b]pyridin-2-one] | 44 nM
NCCn1c(=O)n(S(=O)(=O)c2cc(Cl)sc2Cl)c2cccnc21 [Example 27, 3-(2-aminoethyl)-1-[(2,5-dichlorothien-3-yl)sulfonyl]-1,3-dihydro-2H-imidazo[4,5-b]pyridin-2-one] | 22 nM
COc1cccc(S(=O)(=O)n2c(=O)n(CCN)c3ncccc32)c1 [Example 19, 3-(2-aminoethyl)-1-[(3-methoxyphenyl)sulfonyl]-1,3-dihydro-2H-imidazo[4,5-b]pyridin-2-one] | 14 nM
NCCn1c(=O)n(S(=O)(=O)c2ccccc2F)c2cccnc21 [Example 20, 3-(2-aminoethyl)-1-[(2-fluorophenyl)sulfonyl]-1,3-dihydro-2H-imidazo[4,5-b]pyridin-2-one] | 77 nM
NCCn1c(=O)n(S(=O)(=O)c2c(Cl)nc3sccn23)c2cccnc21 [Example 17, 3-(2-aminoethyl)-1-[(6-chloroimidazo[2,1-b][1,3]thiazol-5-yl)sulfonyl]-1,3-dihydro-2H-imidazo[4,5-b]pyridin-2-one] | 4 nM
NCCn1c(=O)n(S(=O)(=O)c2ccc(Cl)cc2)c2cccnc21 [Example 23, 3-(2-aminoethyl)-1-[(4-chlorophenyl)sulfonyl]-1,3-dihydro-2H-imidazo[4,5-b]pyridin-2-one] | 17 nM
NCCn1c(=O)n(S(=O)(=O)c2ccc3ccccc3c2)c2cccnc21 [Example 18, 3-(2-aminoethyl)-1-(2-naphthylsulfonyl)-1,3-dihydro-2H-imidazo[4,5-b]pyridin-2-one] | 5 nM
CN(C)CCn1c(=O)n(S(=O)(=O)c2cccc(F)c2)c2cccnc21 [Example 4, 3-(2-dimethylaminoethyl)-1-[(3-fluorophenyl)sulfonyl]-1,3-dihydro-2H-imidazo[4,5-b]pyridin-2-one] | 80 nM
NCCn1c(=O)n(S(=O)(=O)c2cccc(Cl)c2Cl)c2cccnc21 [Example 24, 3-(2-aminoethyl)-1-[(2,3-dichlorophenyl)sulfonyl]-1,3-dihydro-2H-imidazo[4,5-b]pyridin-2-one] | 9 nM
